Test results reported in patent US20110257236A1, “SOLID SOLUTION OF VALINE, ISOLEUCINE, LEUCINE AND ITS MANUFACTURING METHOD” (AJINOMOTO CO., INC., priority 2008, published 2011).

Legend:
[1] = Dissolution speed: time until 1 g of powder dissolves completely in 100 ml warm water at 50° C., stirring 550 rpm; assay type: physicochemical
Procedure: As to the dissolution speed, 1 g of powder was dropped into 100 ml of warm water at 50° C. with stirring at a number of revolutions of 550 rpm (using a 200 ml beaker and a magnetic stirrer), and the time until dissolving completely was measured. The time was employed as an indicator of the dissolution speed.
(§1) As to the dissolution speed, 1 g of powder was dropped into 100 ml of warm water at 50° C. or water at ordinary temperature with stirring at a number of revolutions of 550 rpm (using a 200 ml beaker and a magnetic stirrer), and the time until dissolving completely was measured. A mean value of twice measurement was employed as an indicator of the dissolution speed.

[2] = Dissolution speed: time until 1 g of powder dissolves completely in 100 ml water at ordinary temperature, stirring 550 rpm; assay type: physicochemical; conditions: Table 4, 25 degrees (ordinary temperature), 1 g in 100 ml water, mean of twice measurement
Procedure: as §1

[3] = Mean particle size D50 by digital image analysis type particle size distribution meter; assay type: physicochemical
Source text: The size of the solid solution of the invention is preferably 50-1000 μm as a mean particle size. The mean particle size as used herein refers to the number median particle size of sieve diameter D50. In view of dissolution speed taking melting ability in the mouth of solid foods and usability as solid beverages into consideration, too large crystals are unsuitable for practical use. Too small crystals are also unsuitable, due to being choked by dusting upon eating and dusting loss upon manufacturing. As to the mean particle size, D50 was measured by a digital image analysis type particle size distribution meter (Ana Tec As Norway). […]

[4] = at 20° C.; water; cited from earlier work
[5] = Table 1, 1 g in 100 ml warm water at 50° C., time until dissolving completely
[6] = Table 5, 50 degrees, 1 g in 100 ml warm water, mean of twice measurement

CC[C@H](C)[C@H](N)C(=O)O [Ile, L-isoleucine]
Dissolution Speed [1, 5]: 129 s | Dissolution Speed [1, 6]: 128.5 s | Dissolution Speed [2]: 287 s | Mean Particle Size ([3]; Table 1): 400 μm | Mean Particle Size ([3]; Table 4): 400 μm | Mean Particle Size ([3]; Table 5): 400 μm | solubility [4]: 4.02 g

CC(C)C[C@H](N)C(=O)O [Leu, L-leucine]
Dissolution Speed [1, 5]: 130 s | Dissolution Speed [1, 6]: 130 s | Dissolution Speed [2]: 320 s | Mean Particle Size ([3]; Table 1): 280 μm | Mean Particle Size ([3]; Table 4): 280 μm | Mean Particle Size ([3]; Table 5): 280 μm | solubility [4]: 2.38 g

CC(C)[C@H](N)C(=O)O [Val, L-valine]
Dissolution Speed [1, 5]: 118 s | Dissolution Speed [1, 6]: 117.5 s | Dissolution Speed [2]: 142 s | Mean Particle Size ([3]; Table 1): 210 μm | Mean Particle Size ([3]; Table 4): 210 μm | Mean Particle Size ([3]; Table 5): 210 μm | solubility [4]: 5.75 g
